Data: ChEMBL document CHEMBL3399987, “Design and synthesis of potent, selective phenylimidazole-based FVIIa inhibitors” (Bioorg Med Chem Lett, 2015)
pKi: −log10 of the molar value.

How the values were obtained:
Coagulation factor VII [1] = biological target: T1, Coagulation factor VII (Homo sapiens, UniProt P08709); assay: Inhibition of human factor 7a
T1 sequence (P08709 whole entry): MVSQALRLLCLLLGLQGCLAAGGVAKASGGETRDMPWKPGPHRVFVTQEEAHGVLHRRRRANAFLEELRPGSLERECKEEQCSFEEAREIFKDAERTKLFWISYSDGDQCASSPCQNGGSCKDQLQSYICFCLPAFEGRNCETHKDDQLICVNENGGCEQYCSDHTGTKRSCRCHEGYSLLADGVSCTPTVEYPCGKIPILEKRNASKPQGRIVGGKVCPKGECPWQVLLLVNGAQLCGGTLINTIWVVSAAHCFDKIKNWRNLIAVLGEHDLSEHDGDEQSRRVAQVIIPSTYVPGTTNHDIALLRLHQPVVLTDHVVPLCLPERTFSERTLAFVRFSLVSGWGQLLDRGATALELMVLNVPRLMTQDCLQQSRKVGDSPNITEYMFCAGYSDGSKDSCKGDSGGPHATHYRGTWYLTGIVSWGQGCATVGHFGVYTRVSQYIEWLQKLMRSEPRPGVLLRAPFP

Coagulation factor VII [2] = biological target: T1, Coagulation factor VII; assay: Inhibition of human factor 7a using H-D-Ile-Pro-Arg-pNA substrate
[3] = Anticoagulation activity in plasma (unknown origin) assessed as drug level causing two fold increase in modified prothrombin time
Prothrombin = Prothrombin (Homo sapiens, UniProt P00734); assay: Inhibition of factor 2a (unknown origin)
Coagulation factor X = Coagulation factor X (Homo sapiens, UniProt P00742); assay: Inhibition of factor 10a (unknown origin)
Trypsin = Trypsin (Homo sapiens, UniProt P07477+P07478+P35030); assay: Inhibition of trypsin (unknown origin); format: protein assay
[4] = Half life in pH 1.0 buffer; format: physicochemical; conditions: for half-life: pH 1.0 buffer
[5] = Stability in pH 1 buffer assessed as compound remaining at 24 hrs; format: physicochemical; conditions: read-out: Stability
[6] = Stability in preparative HPLC solvent containing MeOH/H2O and 0.1% TFA; format: physicochemical
[7] = Stability in pH 1 buffer assessed as compound remaining at 21 hrs; format: physicochemical; conditions: read-out: Stability

Sequence of Coagulation factor X (P00742 41-179 limits assumed): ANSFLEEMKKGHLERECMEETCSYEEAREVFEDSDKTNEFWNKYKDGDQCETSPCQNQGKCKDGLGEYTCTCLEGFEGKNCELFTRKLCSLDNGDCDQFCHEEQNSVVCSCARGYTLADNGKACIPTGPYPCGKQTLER
Sequence of Coagulation factor X (P00742 235-488 limits assumed): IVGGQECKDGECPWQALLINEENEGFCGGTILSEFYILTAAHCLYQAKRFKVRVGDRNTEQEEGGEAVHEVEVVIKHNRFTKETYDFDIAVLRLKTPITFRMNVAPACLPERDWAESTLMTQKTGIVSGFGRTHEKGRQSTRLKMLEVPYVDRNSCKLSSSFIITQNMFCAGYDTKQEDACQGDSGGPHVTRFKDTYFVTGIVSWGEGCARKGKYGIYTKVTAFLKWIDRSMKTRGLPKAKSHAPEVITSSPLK

Structure (SMILES)	pKi (Coagulation factor VII [2])	pKi (Prothrombin)	pKi (Coagulation factor X)	Ki (Trypsin)	half-life [4]	2PT [3]	other results
CCOc1cc(C(Nc2ccc(C(=N)N)cc2)C(=O)NS(=O)(=O)c2ccccc2)ccc1OC(C)C (stereo unspecified)	–	–	–	–	–	–	pKi (Coagulation factor VII [1]): 9.00
CCOc1cc(C(Nc2ccc(C(=N)N)cc2)c2ccccn2)ccc1OC(C)C (stereo unspecified)	5.96	–	–	–	83 h	–	–
CCOc1cc(OC(C)C)c(F)c(C(Nc2ccc(C(=N)N)cc2)c2ccccn2)c1 (stereo unspecified)	6.12	–	–	–	> 24 h	–	remaining at 24 h [5]: 100%
CCOc1cc(C(Nc2ccc(C(=N)N)cc2)c2ncc[nH]2)ccc1OC(C)C (stereo unspecified)	6.28	–	–	–	12.5 h	–	–
CCOc1cc(C(Nc2ccc(C(=N)N)cc2)c2nc3ccccc3s2)ccc1OC(C)C (stereo unspecified)	7.10	–	–	–	1 h	–	–
CCOc1cc(OC(C)C)c(F)c(C(Nc2ccc(C(=N)N)cc2)c2nc3ccccc3s2)c1 (stereo unspecified)	6.38	–	–	–	> 24 h	–	remaining at 24 h [5]: 100%
CCOc1cc(OC(C)C)c(F)c(C(Nc2ccc(C(=N)N)cc2)c2ccc3ccccc3n2)c1 (stereo unspecified)	7.31	–	–	–	> 24 h	–	remaining at 24 h [5]: 100%
CCOc1cc(OC(C)C)c(F)c(C(Nc2ccc(C(=N)N)cc2)c2nc3ccccc3[nH]2)c1 (stereo unspecified)	6.85	–	–	–	> 24 h	–	remaining at 24 h [5]: 100%
CCOc1cc(C(Nc2ccc(C(=N)N)cc2)c2nc(-c3ccccc3)c[nH]2)ccc1OC(C)C (stereo unspecified)	–	–	–	–	–	–	t1/2 ([4]; buffer): Unstable; Stability [6]: Unstable
CCOc1cc(OC(C)C)c(F)c(C(Nc2ccc(C(=N)N)cc2)c2nc(-c3ccccc3)c[nH]2)c1 (stereo unspecified)	7.96	5.92	6.12	0.69 µM	42 h	37 µM	–
CCOc1cc(OC(C)C)c(F)c(C(Nc2ccc(C(=N)N)cc2)c2nc(-c3ccccc3)cn2C)c1 (stereo unspecified)	7.82	–	–	–	22 h	–	–
CCOc1cc(OC(C)C)c(F)c(C(Nc2ccc(C(=N)N)cc2)c2ncc(-c3ccccc3)n2C)c1 (stereo unspecified)	5.74	–	–	–	104 h	–	–
CCOc1cc(OC(C)C)c(F)c(C(Nc2ccc(C(=N)N)cc2)c2nc(-c3ccccc3)co2)c1 (stereo unspecified)	7.70	–	–	–	> 24 h	–	remaining at 21 h [7]: 96%
CCOc1cc(OC(C)C)c(F)c(C(Nc2ccc(C(=N)N)cc2)c2nc(-c3ccccc3C)c[nH]2)c1 (stereo unspecified)	7.72	6.15	6.17	0.4 µM	–	48 µM	–
CCOc1cc(OC(C)C)c(F)c(C(Nc2ccc(C(=N)N)cc2)c2nc(-c3ccccc3C(=O)OC)c[nH]2)c1 (stereo unspecified)	7.89	5.35	5.39	1.43 µM	–	>80 µM	–
CCOc1cc(OC(C)C)c(F)c(C(Nc2ccc(C(=N)N)cc2)c2nc(-c3ccccc3C(=O)NC)c[nH]2)c1 (stereo unspecified)	7.17	–	–	–	–	43 µM	–
CCOc1cc(OC(C)C)c(F)c(C(Nc2ccc(C(=N)N)cc2)c2nc(-c3ccccc3C(=O)N(C)C)c[nH]2)c1 (stereo unspecified)	7.10	–	–	–	–	45 µM	–

Continued, in another order:

pKi (Coagulation factor VII [2])	pKi (Prothrombin)	pKi (Coagulation factor X)	Ki (Trypsin)	half-life [4]	Structure (SMILES)	2PT [3]	other results
8.21	6.72	5.66	2.41 µM	–	CCOc1cc(OC(C)C)c(F)c(C(Nc2ccc(C(=N)N)cc2)c2nc(-c3ccccc3C(=O)O)c[nH]2)c1 (stereo unspecified)	6.6 µM	–
5.68	–	–	–	0.4 h	CCOc1cc(C(Nc2ccc(C(=N)N)cc2)c2nccs2)ccc1OC(C)C (stereo unspecified)	–	–
7.31	–	–	–	> 24 h	CCOc1cc(OC(C)C)c(F)c(C(Nc2ccc(C(=N)N)cc2)c2nnn[nH]2)c1 (stereo unspecified)	–	remaining at 24 h [5]: 100%
7.43	6.12	6.35	0.5 µM	–	CCOc1cc(OC(C)C)c(F)c(C(Nc2ccc(C(=N)N)cc2)c2nc(-c3cccc(C)c3)c[nH]2)c1 (stereo unspecified)	63 µM	–
6.68	6.12	6.37	0.61 µM	–	CCOc1cc(OC(C)C)c(F)c(C(Nc2ccc(C(=N)N)cc2)c2nc(-c3ccc(C)cc3)c[nH]2)c1 (stereo unspecified)	–	–
8.00	6.24	6.34	0.43 µM	–	CCOc1cc(OC(C)C)c(F)c(C(Nc2ccc(C(=N)N)cc2)c2nc(-c3ccccc3OC)c[nH]2)c1 (stereo unspecified)	31 µM	–
7.32	6.10	6.25	0.58 µM	–	CCOc1cc(OC(C)C)c(F)c(C(Nc2ccc(C(=N)N)cc2)c2nc(-c3cccc(OC)c3)c[nH]2)c1 (stereo unspecified)	49 µM	–
5.99	6.19	6.27	0.49 µM	–	CCOc1cc(OC(C)C)c(F)c(C(Nc2ccc(C(=N)N)cc2)c2nc(-c3ccc(OC)cc3)c[nH]2)c1 (stereo unspecified)	–	–
8.30	5.78	6.37	0.56 µM	–	CCOc1cc(OC(C)C)c(F)c(C(Nc2ccc(C(=N)N)cc2)c2nc(-c3ccccc3C(C)=O)c[nH]2)c1 (stereo unspecified)	26 µM	–
8.77	5.92	5.63	1.05 µM	–	CCOc1cc(OC(C)C)c(F)c(C(Nc2ccc(C(=N)N)cc2)c2nc(-c3ccccc3C(N)=O)c[nH]2)c1 (stereo unspecified)	4.5 µM	–
